Experimental data reported in patent US9340590B2 (priority 2011, dated 2016).
pIC50: −log10 of the molar value. Positions of bridges follow the written chain, without caps; N, C: chain ends. Non-standard residues stand in square brackets, D forms with d. Residues, ends and D or L forms follow the SMILES beside them. 1Nal = N[C@@H](Cc1cccc2ccccc12)C(=O)O

Tests used:
Test in all cases: cell-based
hNav1.7 = hNav1.7 (Homo sapiens, UniProt Q15858); format: cell-based; settings: IonWorks Quattro, use-dependent block, hNav1.7; read-out: IWQ Use Nav1.7
Chain of hNav1.7 (Q15858 whole entry, looked up): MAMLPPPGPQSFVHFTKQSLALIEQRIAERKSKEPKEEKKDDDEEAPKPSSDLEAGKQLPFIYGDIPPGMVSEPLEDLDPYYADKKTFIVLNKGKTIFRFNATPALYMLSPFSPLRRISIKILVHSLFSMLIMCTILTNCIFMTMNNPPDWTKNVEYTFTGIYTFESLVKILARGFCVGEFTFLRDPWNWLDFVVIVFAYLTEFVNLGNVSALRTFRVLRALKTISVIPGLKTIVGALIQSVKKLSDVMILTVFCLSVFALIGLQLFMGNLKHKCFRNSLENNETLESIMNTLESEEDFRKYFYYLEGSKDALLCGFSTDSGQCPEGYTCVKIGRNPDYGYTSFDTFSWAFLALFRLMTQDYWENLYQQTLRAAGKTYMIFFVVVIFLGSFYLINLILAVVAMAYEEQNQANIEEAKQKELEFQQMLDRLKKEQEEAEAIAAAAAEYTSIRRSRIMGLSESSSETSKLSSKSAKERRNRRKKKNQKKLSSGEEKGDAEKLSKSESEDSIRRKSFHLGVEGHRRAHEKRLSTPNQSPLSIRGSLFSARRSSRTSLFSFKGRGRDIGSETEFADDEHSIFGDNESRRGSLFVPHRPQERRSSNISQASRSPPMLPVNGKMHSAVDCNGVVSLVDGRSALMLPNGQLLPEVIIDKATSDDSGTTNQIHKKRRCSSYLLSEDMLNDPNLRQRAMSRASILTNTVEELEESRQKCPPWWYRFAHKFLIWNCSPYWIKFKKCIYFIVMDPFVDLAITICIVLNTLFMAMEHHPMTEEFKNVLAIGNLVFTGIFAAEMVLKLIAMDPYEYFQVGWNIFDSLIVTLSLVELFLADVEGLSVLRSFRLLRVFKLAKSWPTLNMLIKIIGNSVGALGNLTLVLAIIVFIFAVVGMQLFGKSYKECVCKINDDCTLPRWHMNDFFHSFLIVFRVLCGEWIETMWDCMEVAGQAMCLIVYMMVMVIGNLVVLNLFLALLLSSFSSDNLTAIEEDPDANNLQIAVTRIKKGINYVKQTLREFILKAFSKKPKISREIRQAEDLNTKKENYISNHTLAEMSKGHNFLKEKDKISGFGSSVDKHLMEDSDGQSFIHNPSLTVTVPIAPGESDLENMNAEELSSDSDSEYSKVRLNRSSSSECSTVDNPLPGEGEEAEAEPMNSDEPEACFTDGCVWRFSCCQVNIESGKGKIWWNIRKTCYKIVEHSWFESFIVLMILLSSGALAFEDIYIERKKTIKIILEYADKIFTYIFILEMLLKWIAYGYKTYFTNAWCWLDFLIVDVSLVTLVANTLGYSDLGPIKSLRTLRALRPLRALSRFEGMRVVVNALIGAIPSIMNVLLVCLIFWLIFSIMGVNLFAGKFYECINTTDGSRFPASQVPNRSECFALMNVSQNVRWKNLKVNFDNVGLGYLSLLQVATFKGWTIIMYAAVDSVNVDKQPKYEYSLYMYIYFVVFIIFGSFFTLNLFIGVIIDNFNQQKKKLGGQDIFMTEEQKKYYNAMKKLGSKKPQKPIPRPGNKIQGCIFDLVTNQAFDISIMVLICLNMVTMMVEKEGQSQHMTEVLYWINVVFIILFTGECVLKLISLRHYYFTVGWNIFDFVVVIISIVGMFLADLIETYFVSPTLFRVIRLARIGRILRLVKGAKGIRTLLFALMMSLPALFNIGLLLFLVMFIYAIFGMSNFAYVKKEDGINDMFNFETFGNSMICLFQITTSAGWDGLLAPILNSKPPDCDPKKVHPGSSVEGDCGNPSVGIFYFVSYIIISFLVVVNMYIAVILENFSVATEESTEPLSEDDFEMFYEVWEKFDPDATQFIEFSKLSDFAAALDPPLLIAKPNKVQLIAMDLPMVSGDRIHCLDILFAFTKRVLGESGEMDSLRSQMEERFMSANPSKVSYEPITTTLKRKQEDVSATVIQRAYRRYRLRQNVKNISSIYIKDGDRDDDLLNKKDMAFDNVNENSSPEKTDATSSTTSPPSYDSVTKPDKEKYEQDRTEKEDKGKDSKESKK

hNav1.5 = hNav1.5 (Homo sapiens, UniProt Q14524); settings: IonWorks Quattro, use-dependent block, hNav1.5; read-out: IWQ Use Nav1.5
Chain of hNav1.5 (Q14524 whole entry, looked up): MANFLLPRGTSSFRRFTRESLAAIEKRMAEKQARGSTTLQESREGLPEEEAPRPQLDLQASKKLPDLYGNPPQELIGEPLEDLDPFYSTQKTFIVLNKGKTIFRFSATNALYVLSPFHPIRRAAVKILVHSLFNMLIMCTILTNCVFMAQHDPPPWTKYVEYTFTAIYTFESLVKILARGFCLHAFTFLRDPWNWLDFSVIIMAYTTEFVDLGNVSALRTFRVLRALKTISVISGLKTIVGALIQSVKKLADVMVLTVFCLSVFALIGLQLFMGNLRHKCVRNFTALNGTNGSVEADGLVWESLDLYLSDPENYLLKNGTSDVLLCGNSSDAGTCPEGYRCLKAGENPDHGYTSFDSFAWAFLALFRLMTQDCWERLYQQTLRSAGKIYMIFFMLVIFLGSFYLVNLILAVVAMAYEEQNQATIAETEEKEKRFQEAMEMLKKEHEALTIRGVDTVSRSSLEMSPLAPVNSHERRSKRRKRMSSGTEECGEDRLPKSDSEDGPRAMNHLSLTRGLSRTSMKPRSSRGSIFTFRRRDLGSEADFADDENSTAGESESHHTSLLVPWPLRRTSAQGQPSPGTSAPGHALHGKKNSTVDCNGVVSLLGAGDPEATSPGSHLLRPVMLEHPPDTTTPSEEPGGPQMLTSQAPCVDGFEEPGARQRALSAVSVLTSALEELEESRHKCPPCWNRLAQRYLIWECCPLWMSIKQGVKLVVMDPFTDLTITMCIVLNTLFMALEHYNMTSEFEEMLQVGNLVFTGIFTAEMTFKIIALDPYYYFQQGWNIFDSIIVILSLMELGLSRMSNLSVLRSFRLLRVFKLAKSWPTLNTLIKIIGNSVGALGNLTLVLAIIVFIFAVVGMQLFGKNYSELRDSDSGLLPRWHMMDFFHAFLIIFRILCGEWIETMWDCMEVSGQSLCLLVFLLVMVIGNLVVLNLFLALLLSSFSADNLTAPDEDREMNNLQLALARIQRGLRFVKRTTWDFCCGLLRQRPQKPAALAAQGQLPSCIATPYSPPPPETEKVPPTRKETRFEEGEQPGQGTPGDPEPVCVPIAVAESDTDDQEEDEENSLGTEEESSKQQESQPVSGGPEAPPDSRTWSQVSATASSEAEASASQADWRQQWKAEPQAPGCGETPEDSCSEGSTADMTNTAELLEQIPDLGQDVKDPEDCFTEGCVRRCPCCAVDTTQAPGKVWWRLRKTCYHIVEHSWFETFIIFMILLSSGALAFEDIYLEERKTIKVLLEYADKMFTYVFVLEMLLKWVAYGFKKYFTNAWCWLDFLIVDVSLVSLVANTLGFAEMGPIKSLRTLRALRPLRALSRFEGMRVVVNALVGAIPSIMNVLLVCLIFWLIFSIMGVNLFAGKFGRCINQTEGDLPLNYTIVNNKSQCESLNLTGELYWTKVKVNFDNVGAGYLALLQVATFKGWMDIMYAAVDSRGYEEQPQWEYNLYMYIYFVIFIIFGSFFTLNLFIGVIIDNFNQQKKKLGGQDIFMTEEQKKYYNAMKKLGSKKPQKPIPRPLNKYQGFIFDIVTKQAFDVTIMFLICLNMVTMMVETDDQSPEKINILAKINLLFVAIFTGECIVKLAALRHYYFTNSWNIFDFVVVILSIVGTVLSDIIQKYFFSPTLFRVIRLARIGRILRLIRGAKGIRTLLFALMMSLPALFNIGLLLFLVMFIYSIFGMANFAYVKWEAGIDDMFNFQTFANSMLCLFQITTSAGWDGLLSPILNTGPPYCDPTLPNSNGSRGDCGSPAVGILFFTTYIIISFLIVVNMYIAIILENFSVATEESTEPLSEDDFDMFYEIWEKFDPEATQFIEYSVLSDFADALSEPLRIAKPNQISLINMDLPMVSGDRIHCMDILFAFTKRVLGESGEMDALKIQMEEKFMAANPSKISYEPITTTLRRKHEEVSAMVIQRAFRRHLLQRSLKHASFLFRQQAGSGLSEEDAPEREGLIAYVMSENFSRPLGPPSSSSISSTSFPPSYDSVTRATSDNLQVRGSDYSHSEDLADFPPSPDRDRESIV

hNav1.3 = hNav1.3 (Homo sapiens, UniProt Q9NY46); settings: IonWorks Quattro, use-dependent block, hNav1.3; read-out: IWQ Use Nav1.3

Row | SMILES | pIC50 (hNav1.7) | pIC50 (hNav1.5) | pIC50 (hNav1.3)
1 | CC[C@H](C)[C@@H]1NC(=O)[C@@H]2CSSC[C@@H]3NC(=O)[C@H](C(C)C)NC(=O)[C@H](CC(C)C)NC(=O)[C@H](CC(N)=O)NC(=O)[C@@H]4CCCN4C(=O)[C@H](CCCNC(=N)N)NC(=O)[C@H](CSSC[C@H](NC(=O)[C@@H](N)CC(=O)O)C(=O)N[C@@H](CC(C)C)C(=O)NCC(=O)N[C@@H](Cc4ccccc4)C(=O)N[C@@H](CCSC)C(=O)N[C@@H](CCCNC(=N)N)C(=O)N[C@@H](CCCCN)C(=O)N2)NC(=O)[C@H](CSSC[C@@H](C(=O)N[C@@H](CCCCN)C(=O)N[C@@H](Cc2cccc4ccccc24)C(=O)N[C@H](C(=O)N[C@@H](Cc2ccccc2)C(N)=O)C(C)C)NC(=O)[C@H](Cc2c[nH]c4ccccc24)NC(=O)[C@H](CCCNC(=N)N)NC(=O)[C@H](Cc2c[nH]cn2)NC(=O)[C@H]([C@@H](C)O)NC(=O)[C@H](CCCNC(=N)N)NC(=O)[C@H](CO)NC3=O)NC(=O)[C@H](CCCCN)NC(=O)[C@H](CC(=O)O)NC(=O)[C@H](CC(N)=O)NC(=O)[C@H](CC(=O)O)NC(=O)[C@@H]2CCCN2C1=O [compound 251] (H-DCLGFMRKCIPDNDKCCRPNLVCSRTHRWCK[1Nal]VF-NH2; disulfide 2-17, 9-23, 16-30) | 8.30 | 5.59 | 8.70
2 | CC[C@H](C)[C@@H]1NC(=O)[C@@H]2CSSC[C@@H]3NC(=O)[C@H](C(C)C)NC(=O)[C@H](CC(C)C)NC(=O)[C@H](CC(N)=O)NC(=O)[C@@H]4CCCN4C(=O)[C@H](CCCNC(=N)N)NC(=O)[C@H](CSSC[C@H](NC(=O)[C@@H](N)CC(=O)O)C(=O)N[C@@H](CC(C)C)C(=O)NCC(=O)N[C@@H](C)C(=O)N[C@@H](CCSC)C(=O)N[C@@H](CCCNC(=N)N)C(=O)N[C@@H](CCCCN)C(=O)N2)NC(=O)[C@H](CSSC[C@@H](C(=O)N[C@@H](CCCCN)C(=O)N[C@@H](Cc2ccc(O)cc2)C(=O)N[C@@H](Cc2c[nH]c4ccccc24)C(=O)N[C@@H](Cc2ccccc2)C(N)=O)NC(=O)[C@H](Cc2c[nH]c4ccccc24)NC(=O)[C@H](CCCCN)NC(=O)[C@H](Cc2c[nH]cn2)NC(=O)[C@H]([C@@H](C)O)NC(=O)[C@H](CCCNC(=N)N)NC(=O)[C@H](CO)NC3=O)NC(=O)[C@H](CCCCN)NC(=O)[C@H](CC(=O)O)NC(=O)[C@H](CC(N)=O)NC(=O)[C@H](CC(=O)O)NC(=O)[C@@H]2CCCN2C1=O [compound 252] (H-DCLGAMRKCIPDNDKCCRPNLVCSRTHKWCKYWF-NH2; disulfide 2-17, 9-23, 16-30) | 6.64 | 5.30 | 6.40
3 | CC[C@H](C)[C@@H]1NC(=O)[C@@H]2CSSC[C@@H]3NC(=O)[C@H](C(C)C)NC(=O)[C@H](CC(C)C)NC(=O)[C@H](CC(N)=O)NC(=O)[C@@H]4CCCN4C(=O)[C@H](CCCNC(=N)N)NC(=O)[C@H](CSSC[C@H](NC(=O)[C@@H](N)CC(=O)O)C(=O)N[C@@H](CC(C)C)C(=O)NCC(=O)N[C@@H](C)C(=O)N[C@@H](CCSC)C(=O)N[C@@H](CCCNC(=N)N)C(=O)N[C@@H](CCCCN)C(=O)N2)NC(=O)[C@H](CSSC[C@@H](C(=O)N[C@@H](CCCCN)C(=O)N[C@@H](Cc2c[nH]c4ccccc24)C(=O)N[C@H](C(=O)N[C@@H](Cc2ccccc2)C(N)=O)C(C)C)NC(=O)[C@H](Cc2c[nH]c4ccccc24)NC(=O)[C@H](CCCCN)NC(=O)[C@H](Cc2c[nH]cn2)NC(=O)[C@H]([C@@H](C)O)NC(=O)[C@H](CCCNC(=N)N)NC(=O)[C@H](CO)NC3=O)NC(=O)[C@H](CCCCN)NC(=O)[C@H](CC(=O)O)NC(=O)[C@H](CC(N)=O)NC(=O)[C@H](CC(=O)O)NC(=O)[C@@H]2CCCN2C1=O [compound 253] (H-DCLGAMRKCIPDNDKCCRPNLVCSRTHKWCKWVF-NH2; disulfide 2-17, 9-23, 16-30) | 6.57 | 5.30 | 6.28
